Data published in US11957684B2, “Treatment of heavy menstrual bleeding associated with uterine fibroids” (Sumitomo Pharma Switzerland GmbH, priority 2016, dated 2024).

What was measured:
FIG. 75 = assay: FIG. 75
From the text: Table printed on a drawing sheet, FIG. 75
First reader's note: Each body row is one statistic (N, Mean, SD, quartiles, range) of the plasma concentration for one dose group, so N rows are subject counts and SD rows are errors; the dose group name is printed only on the N row and is repeated here for its group.

FIG. 167 = assay: FIG. 167
From the text: Table printed on a drawing sheet, FIG. 167
First reader's note: Units stand in the cells; each column is one drug and the rows are its properties.

[1] = literature (Struthers et al. 2009); cited from earlier work

From the text for FIG. 73: First reader's note: Each row is one summary statistic (N, mean, SD, quartiles, range) of the plasma concentration for one dose group; the N rows are subject counts, not ng/mL, and the columns are visit/sampling times.

Compound	Visit | Week 0: 0.5-[…] (FIG. 73) [ng/mL]	Visit | Week 0: 2-5hr (FIG. 73) [ng/mL]	Visit | Week 2: 0.5-[…] (FIG. 73) [ng/mL]	Visit | Week 2: 2-5hr (FIG. 73) [ng/mL]	Visit | Week 2: Predose (FIG. 73) [ng/mL]	Visit | Week 4: 0.5-[…] (FIG. 73) [ng/mL]	Visit | Week 4: 2-5hr (FIG. 73) [ng/mL]	Visit | Week 4: Predose (FIG. 73) [ng/mL]	Visit | Week 8: 0.5-[…] (FIG. 73) [ng/mL]	Visit | Week 8: 2-5hr (FIG. 73) [ng/mL]	Visit | Week 8: Predose (FIG. 73) [ng/mL]	Visit | Week 12 (FIG. 73) [ng/mL]	Visit | Week 16: Predose (FIG. 73) [ng/mL]	Visit | Week 20: Predose (FIG. 73) [ng/mL]	Visit | Week 24 (FIG. 73) [ng/mL]	Visit | Week 2: Predose (FIG. 75) [ng/mL]	Visit | Week 4: Predose (FIG. 75) [ng/mL]	Visit | Week 8: Predose (FIG. 75) [ng/mL]	Visit | Week 12 (FIG. 75) [ng/mL]	Observed Half-life (FIG. 167) [h]	other results
CONC(=O)Nc1ccc(-c2sc3c(c2CN(C)C)c(=O)n(-c2ccc(OC)nn2)c(=O)n3Cc2c(F)cccc2F)cc1 [Compound 1 20 mg]	2.784	2.154	2.912	2.981	0.8002	3.515	3.567	0.6640	3.437	2.643	0.8032	0.6904	0.6280	0.7132	0.6712	0.8990	0.3880	0.3380	0.8320	–	Visit | Week 0: 0.5-[…] (FIG. 75): 7.570 ng/mL; Visit | Week 24 (FIG. 75): 0.7470 ng/mL
CONC(=O)Nc1ccc(-c2sc3c(c2CN(C)C)c(=O)n(-c2ccc(OC)nn2)c(=O)n3Cc2c(F)cccc2F)cc1 [Compound 1 40 mg]	7.424	7.680	9.210	7.550	2.383	11.61	8.479	2.315	10.29	11.20	2.233	1.987	1.995	2.240	1.908	–	–	3.580	1.520	–	–
CONC(=O)Nc1ccc(-c2sc3c(c2CN(C)C)c(=O)n(-c2ccc(OC)nn2)c(=O)n3Cc2c(F)cccc2F)cc1 [Compound 1 10 mg]	0.5290	0.5641	–	0.8025	0.3100	–	0.9672	0.2670	1.324	0.8301	0.3406	0.2783	0.3251	0.3138	0.2811	0.0898	0.1880	–	0.8620	–	Visit | Week 2: 0.5-[…] (FIG. 75): 0.9860 ng/mL; Visit | Week 2: 2-5hr (FIG. 75): 0.8280 ng/mL; Visit | Week 4: 0.5-[…] (FIG. 75): 0.9140 ng/mL; Visit | Week 4: 2-5hr (FIG. 75): 0.3720 ng/mL; Visit | Week 8: 0.5-[…] (FIG. 75): 2.192 ng/mL; Visit | Week 8: 2-5hr (FIG. 75): 1.320 ng/mL; Visit | Week 16: Predose (FIG. 75): 0.1500 ng/mL
CONC(=O)Nc1ccc(-c2sc3c(c2CN(C)C)c(=O)n(-c2ccc(OC)nn2)c(=O)n3Cc2c(F)cccc2F)cc1 [Relugolix^1]	–	–	–	–	–	–	–	–	–	–	–	–	–	–	–	–	–	–	–	37 to 42	–
COc1cccc(-c2c(C)n(Cc3c(F)cccc3C(F)(F)F)c(=O)n(C[C@H](NCCCC(=O)O)c3ccccc3)c2=O)c1F [Elagolix^2]	–	–	–	–	–	–	–	–	–	–	–	–	–	–	–	–	–	–	–	2 to 6	–
COc1cccc(-c2c(C)n(Cc3c(F)cccc3C(F)(F)F)c(=O)n(C[C@H](NCCCC(=O)O)c3ccccc3)c2=O)c1F [elagolix]	–	–	–	–	–	–	–	–	–	–	–	–	–	–	–	–	–	–	–	–	half-life [1]: 2.4 to 6.3 h
